Laboratory results reported in patent US20120052056A1, “COMPOSITION FOR IMPROVING BLOOD CIRCULATION CONTAINING FERMENTED TEA, AND PHARMACEUTICAL AND HEALTH-FOOD COMPOSITIONS COMPRISING THE SAME” (priority 2009, published 2012).

Tested on: rats fed high-cholesterol diet inducing hyperlipidemia
Assay: Reduction in the serum and liver lipid levels in animal model
Format: in vivo
Settings: 200 mg/kg oral once a day for 4 weeks with hyperlipidemia-inducing diet
Protocol: Eight 8-week-old female rats weighing 250-300 g were housed in each polycarbonate cage under a 12 hr light/12 hr dark cycle at a constant temperature of 22±2° C. and a relative humidity of 55±15%. The animals were fed with a normal diet and a high-cholesterol diet and given drinking water ad libitum. The test animals were divided into four groups: a normal group, a control group, a positive control group, and a test group. The normal group was provided only with general feed, the control group was fed with a normal diet containing 1% cholesterol and 0.5% cholic acid to cause hyperlipidemia, and the positive control group was administered with fenofibric acid (200 mg/kg) that is used as an agent for treating hyperlipidemia, in which the fenofibric acid was suspended in 1% methyl cellulose (MC) and administered orally. The test group was administered orally with the post-fermented tea extract and the green tea extract every day together with a hyperlipidemia-inducing diet, in which the post-fermented tea extract and the green tea extract (200 mg/kg) were provided by oral administration once a day for 4 weeks. After the rats of each group were fasted for 12 hours, a blood sample was taken from the orbital vein and centrifuged at 10000 rcf for 10 minutes. The resulting serum was used to evaluate blood total cholesterol, LDL cholesterol and HDL-cholesterol levels. The rat's liver was collected and used to evaluate the liver cholesterol and triglyceride levels. The above analysis was carried out using an automatic blood analyzer and a Roche diagnostic kit, and the results of the analysis are shown in Table 4 (serum lipids) below and Table 5 (liver lipids).

CC(C)(Oc1ccc(C(=O)c2ccc(Cl)cc2)cc1)C(=O)O [Positive control group, fenofibric acid]
Liver lipids: Total cholesterol (liver): 15.43 ± 0.52 µg/mg
Liver lipids: Triglyceride (liver): 185.39 ± 23.84 µg/mg
Serum lipids: HDL-cholesterol (serum): 87.89 ± 6.84 mg/dL
Serum lipids: LDL-cholesterol (serum): 75.34 ± 2.80 mg/dL
Serum lipids: Total cholesterol (serum): 112.42 ± 13.33 mg/dL
